# Assay results: ChEMBL document CHEMBL3992518, “Peptide Macrocycle Inhibitor of Coagulation Factor XII with Subnanomolar Affinity and High Target Selectivity” (J Med Chem, 2017)
# *1 amine or outer side, *2 acyl side, *3 side chain or, on linkers, in order; H or OH if unused. Where a SMILES comes first, the peptide text is derived from it. Bridges are numbered along the chain shown (N, C = ends). TATA = O=C(CC[*:1])N1CN(C(=O)CC[*:2])CN(C(=O)CC[*:3])C1
# Biological target: T1, Coagulation factor XII (Homo sapiens, UniProt P00748)
# T1 sequence (P00748 whole entry): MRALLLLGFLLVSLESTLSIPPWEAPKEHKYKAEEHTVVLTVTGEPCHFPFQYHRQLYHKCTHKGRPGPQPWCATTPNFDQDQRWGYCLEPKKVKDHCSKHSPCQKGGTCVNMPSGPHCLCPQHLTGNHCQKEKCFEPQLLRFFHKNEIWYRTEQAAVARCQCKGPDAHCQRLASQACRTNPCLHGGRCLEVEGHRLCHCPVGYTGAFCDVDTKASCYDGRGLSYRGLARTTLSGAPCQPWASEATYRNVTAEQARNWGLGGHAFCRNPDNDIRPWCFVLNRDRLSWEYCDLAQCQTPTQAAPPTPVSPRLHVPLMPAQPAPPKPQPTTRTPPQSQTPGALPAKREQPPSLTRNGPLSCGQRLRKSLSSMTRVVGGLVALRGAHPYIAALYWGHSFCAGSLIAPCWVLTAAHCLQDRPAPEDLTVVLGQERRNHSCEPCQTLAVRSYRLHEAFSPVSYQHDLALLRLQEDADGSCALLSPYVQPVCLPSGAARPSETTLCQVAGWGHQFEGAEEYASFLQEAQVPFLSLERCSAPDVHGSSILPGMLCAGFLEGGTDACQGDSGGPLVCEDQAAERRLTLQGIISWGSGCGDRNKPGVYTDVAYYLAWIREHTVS
# Experiment: Inhibition of human beta factor 12a using fluorogenic substrate Boc-Gln-Gly-Arg-AMC preincubated for 10 mins followed by addition of substrate measured every min for 30 mins
row,Ki,Compound
1,0.114 µM,CC(C)C[C@@H]1NC(=O)[C@H](CCC(N)=O)NC(=O)[C@H](CCCNC(=N)N)NC(=O)[C@@H]2CSCCC(=O)N3CN(CN(C3)C(=O)CCSC[C@H](NC(=O)[C@@H](N)CCCNC(=N)N)C(=O)N[C@@H](C/C=C/c3ccccc3)C(=O)N[C@@H](CCCNC(=N)N)C(=O)N[C@@H](CC(C)C)C(=O)N3CCC[C@H]3C(=O)N2)C(=O)CCSC[C@@H](C(=O)N[C@@H](CCCNC(=N)N)C(=O)N[C@@H](Cc2c[nH]c3ccccc23)C(=O)O)NC(=O)[C@H](CCCNC(=N)N)NC1=O
2,0.047 µM,CC(C)C[C@@H]1NC(=O)[C@H](CCC(N)=O)NC(=O)[C@H](CCCNC(=N)N)NC(=O)[C@@H]2CSCCC(=O)N3CN(CN(C3)C(=O)CCSC[C@H](NC(=O)[C@@H](N)CCCNC(=N)N)C(=O)N[C@@H](Cc3ccccc3)C(=O)N[C@@H](CCCNC(=N)N)C(=O)N[C@@H](CC(C)C)C(=O)N[C@@H](C(C)C)C(=O)N2)C(=O)CCSC[C@@H](C(=O)N[C@@H](CCCNC(=N)N)C(=O)N[C@@H](Cc2c[nH]c3ccccc23)C(=O)O)NC(=O)[C@H](CCCNC(=N)N)NC1=O (H-RCFRLVCRQLRCRW-OH; linker 2-7-12 via TATA)
3,> 1 µM,CC(C)C[C@@H]1NC(=O)[C@H](CCC(N)=O)NC(=O)[C@H](CCCNC(=N)N)NC(=O)[C@@H]2CSCCC(=O)N3CN(CN(C3)C(=O)CCSC[C@H](NC(=O)[C@@H](N)CCCNC(=N)N)C(=O)N[C@@H](Cc3ccc(C(C)(C)C)cc3)C(=O)N[C@@H](CCCNC(=N)N)C(=O)N[C@@H](CC(C)C)C(=O)N3CCC[C@H]3C(=O)N2)C(=O)CCSC[C@@H](C(=O)N[C@@H](CCCNC(=N)N)C(=O)N[C@@H](Cc2c[nH]c3ccccc23)C(=O)O)NC(=O)[C@H](CCCNC(=N)N)NC1=O
4,0.0294 µM,CC(C)CC[C@@H]1NC(=O)[C@H](CCC(N)=O)NC(=O)[C@H](CCCNC(=N)N)NC(=O)[C@@H]2CSCCC(=O)N3CN(CN(C3)C(=O)CCSC[C@H](NC(=O)[C@@H](N)CCCNC(=N)N)C(=O)N[C@@H](Cc3ccccc3)C(=O)N[C@@H](CCCNC(=N)N)C(=O)N[C@@H](CC(C)C)C(=O)N3CCC[C@H]3C(=O)N2)C(=O)CCSC[C@@H](C(=O)N[C@@H](CCCNC(=N)N)C(=O)N[C@@H](Cc2c[nH]c3ccccc23)C(=O)O)NC(=O)[C@H](CCCNC(=N)N)NC1=O
5,0.038 µM,CCC(CC)C1NC(=O)[C@H](CCC(N)=O)NC(=O)[C@H](CCCNC(=N)N)NC(=O)[C@@H]2CSCCC(=O)N3CN(CN(C3)C(=O)CCSC[C@H](NC(=O)[C@@H](N)CCCNC(=N)N)C(=O)N[C@@H](Cc3ccccc3)C(=O)N[C@@H](CCCNC(=N)N)C(=O)N[C@@H](CC(C)C)C(=O)N3CCC[C@H]3C(=O)N2)C(=O)CCSC[C@@H](C(=O)N[C@@H](CCCNC(=N)N)C(=O)N[C@@H](Cc2c[nH]c3ccccc23)C(=O)O)NC(=O)[C@H](CCCNC(=N)N)NC1=O (stereo partly drawn)
6,0.092 µM,CC(C)C[C@@H]1NC(=O)[C@H](CCC(N)=O)NC(=O)[C@H](CCCNC(=N)N)NC(=O)[C@@H]2CSCCC(=O)N3CN(CN(C3)C(=O)CCSC[C@H](NC(=O)[C@@H](N)CCCNC(=N)N)C(=O)N[C@@H](Cc3ccc(I)cc3)C(=O)N[C@@H](CCCNC(=N)N)C(=O)N[C@@H](CC(C)C)C(=O)N3CCC[C@H]3C(=O)N2)C(=O)CCSC[C@@H](C(=O)N[C@@H](CCCNC(=N)N)C(=O)N[C@@H](Cc2c[nH]c3ccccc23)C(=O)O)NC(=O)[C@H](CCCNC(=N)N)NC1=O
7,0.094 µM,CC(C)C[C@@H]1NC(=O)[C@H](CCC(N)=O)NC(=O)[C@H](CCCNC(=N)N)NC(=O)[C@@H]2CSCCC(=O)N3CN(CN(C3)C(=O)CCSC[C@H](NC(=O)[C@@H](N)CCCNC(=N)N)C(=O)N[C@@H](Cc3c[nH]c4ccc(O)cc34)C(=O)N[C@@H](CCCNC(=N)N)C(=O)N[C@@H](CC(C)C)C(=O)N3CCC[C@H]3C(=O)N2)C(=O)CCSC[C@@H](C(=O)N[C@@H](CCCNC(=N)N)C(=O)N[C@@H](Cc2c[nH]c3ccccc23)C(=O)O)NC(=O)[C@H](CCCNC(=N)N)NC1=O
8,> 3 µM,CC(C)C[C@@H]1NC(=O)[C@H](Cc2cnc[nH]2)NC(=O)[C@H](CCCNC(=N)N)NC(=O)[C@@H]2CSCCC(=O)N3CN(CN(C3)C(=O)CCSC[C@H](NC(=O)[C@@H](N)CCCNC(=N)N)C(=O)N[C@@H](Cc3ccccc3)C(=O)N[C@@H](CCCNC(=N)N)C(=O)N[C@@H](CC(C)C)C(=O)N3CCC[C@H]3C(=O)N2)C(=O)CCSC[C@@H](C(=O)N[C@@H](CCCNC(=N)N)C(=O)N[C@@H](Cc2c[nH]c3ccccc23)C(=O)O)NC(=O)[C@H](CCCNC(=N)N)NC1=O (H-RCFRLPCRHLRCRW-OH; linker 2-7-12 via TATA)
9,0.083 µM,CC[C@H](C)[C@H](N)C(=O)N[C@H]1CSCCC(=O)N2CN3CN(C2)C(=O)CCSC[C@H](NC(=O)[C@@H]2CCCN2C(=O)[C@H](CC(C)C)NC(=O)[C@H](CCCNC(=N)N)NC(=O)[C@H](Cc2ccccc2)NC1=O)C(=O)N[C@@H](CCCNC(=N)N)C(=O)N[C@@H](CCC(N)=O)C(=O)N[C@@H](CC(C)C)C(=O)N[C@@H](CCCNC(=N)N)C(=O)N[C@H](C(=O)N[C@@H](CCCNC(=N)N)C(=O)O)CSCCC3=O (H-ICFRLPCRQLRCR-OH; linker 2-7-12 via TATA)
10,0.0093 µM,CC(C)C[C@@H]1NC(=O)[C@H](CCC(N)=O)NC(=O)[C@H](CCCNC(=N)N)NC(=O)[C@@H]2CSCCC(=O)N3CN(CN(C3)C(=O)CCSC[C@H](NC(=O)[C@@H](N)CCCNC(=N)N)C(=O)N[C@@H](Cc3ccccc3)C(=O)N[C@@H](CCCNC(=N)N)C(=O)N[C@@H](CC(C)C)C(=O)N3CCC[C@H]3C(=O)N2)C(=O)CCSC[C@@H](C(=O)O)NC(=O)[C@H](CCCNC(=N)N)NC1=O (H-RCFRLPCRQLRC-OH; linker 2-7-12 via TATA)
11,0.006 µM,CC(C)C[C@@H]1NC(=O)[C@H](CCC(N)=O)NC(=O)[C@H](CCCNC(=N)N)NC(=O)[C@@H]2CSCCC(=O)N3CN(CN(C3)C(=O)CCSC[C@H](NC(=O)[C@@H](N)CCCNC(=N)N)C(=O)N[C@@H](Cc3ccc4ccccc4c3)C(=O)N[C@@H](CCCNC(=N)N)C(=O)N[C@@H](CC(C)C)C(=O)N3CCC[C@H]3C(=O)N2)C(=O)CCSC[C@@H](C(=O)N[C@@H](CCCNC(=N)N)C(=O)N[C@@H](Cc2c[nH]c3ccccc23)C(=O)O)NC(=O)[C@H](CCCNC(=N)N)NC1=O
12,0.0306 µM,CCCC[C@@H]1NC(=O)[C@H](CCC(N)=O)NC(=O)[C@H](CCCNC(=N)N)NC(=O)[C@@H]2CSCCC(=O)N3CN(CN(C3)C(=O)CCSC[C@H](NC(=O)[C@@H](N)CCCNC(=N)N)C(=O)N[C@@H](Cc3ccccc3)C(=O)N[C@@H](CCCNC(=N)N)C(=O)N[C@@H](CC(C)C)C(=O)N3CCC[C@H]3C(=O)N2)C(=O)CCSC[C@@H](C(=O)N[C@@H](CCCNC(=N)N)C(=O)N[C@@H](Cc2c[nH]c3ccccc23)C(=O)O)NC(=O)[C@H](CCCNC(=N)N)NC1=O
13,1.04 µM,CC(C)C[C@@H]1NC(=O)[C@H](CCCNC(=N)N)NC(=O)[C@H](Cc2ccccc2)NC(=O)[C@@H](NC(=O)[C@@H](N)CCCNC(=N)N)CSCCC(=O)N2CN3CN(C2)C(=O)CCSC[C@H](NC(=O)[C@@H]2CCCN2C1=O)C(=O)N[C@@H](CCCNC(=N)N)C(=O)N[C@@H](CCC(N)=O)C(=O)N[C@@H](C)C(=O)N[C@@H](CCCNC(=N)N)C(=O)N[C@H](C(=O)N[C@@H](CCCNC(=N)N)C(=O)N[C@@H](Cc1c[nH]c2ccccc12)C(=O)O)CSCCC3=O (H-RCFRLPCRQARCRW-OH; linker 2-7-12 via TATA)
